Source: patent publication US20170022171A1, “2,5-DISUBSTITUTED CYCLOPENTANECARBOXYLIC ACIDS AND THEIR USE” (Bayer Pharma Aktiengesellschaft, priority 2014, published 2017)

What was measured:
Format in all cases: biochemical
[1] = target: T1, MMP-2 (Homo sapiens, UniProt P08253); assay: In vitro MMP-2 inhibition test
T1 construct: purchased R&D Systems 902-MP
T1 sequence (P08253 110-660): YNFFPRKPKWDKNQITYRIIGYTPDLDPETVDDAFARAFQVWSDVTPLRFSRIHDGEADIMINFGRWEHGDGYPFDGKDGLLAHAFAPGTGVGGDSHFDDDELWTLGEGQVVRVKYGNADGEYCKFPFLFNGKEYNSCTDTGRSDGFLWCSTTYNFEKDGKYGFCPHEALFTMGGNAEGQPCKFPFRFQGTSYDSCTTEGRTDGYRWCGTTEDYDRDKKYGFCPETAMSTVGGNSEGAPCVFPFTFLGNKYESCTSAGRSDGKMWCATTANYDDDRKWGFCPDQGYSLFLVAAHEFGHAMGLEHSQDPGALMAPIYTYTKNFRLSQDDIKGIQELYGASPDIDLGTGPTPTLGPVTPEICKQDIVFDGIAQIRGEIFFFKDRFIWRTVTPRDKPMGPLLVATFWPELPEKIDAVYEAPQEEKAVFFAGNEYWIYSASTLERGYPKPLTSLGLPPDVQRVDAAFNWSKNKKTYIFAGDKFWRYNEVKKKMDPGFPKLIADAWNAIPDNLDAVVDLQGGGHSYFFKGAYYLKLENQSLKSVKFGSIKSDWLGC
In short: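 APMA-activated recombinant MMP-2 (final e.g. 2 nM) in 50 mM Tris/HCl pH 7.5, 10 mM CaCl2, 150 mM NaCl, 0.05% Brij-35, with compound in DMSO. Started with quenched Mca-PLGL-Dpa(Dnp)-AR-NH2 (e.g. 10 μM); fluorescence (ex 320/em 410 nm) followed e.g. 120 min at 32° C.; IC50 at 50% signal.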

[2] = target: T2, MMP-9 (Homo sapiens, UniProt P14780); assay: In vitro MMP-9 inhibition test
T2 construct: purchased R&D Systems 911-MP
T2 sequence (P14780 107-707 limits assumed): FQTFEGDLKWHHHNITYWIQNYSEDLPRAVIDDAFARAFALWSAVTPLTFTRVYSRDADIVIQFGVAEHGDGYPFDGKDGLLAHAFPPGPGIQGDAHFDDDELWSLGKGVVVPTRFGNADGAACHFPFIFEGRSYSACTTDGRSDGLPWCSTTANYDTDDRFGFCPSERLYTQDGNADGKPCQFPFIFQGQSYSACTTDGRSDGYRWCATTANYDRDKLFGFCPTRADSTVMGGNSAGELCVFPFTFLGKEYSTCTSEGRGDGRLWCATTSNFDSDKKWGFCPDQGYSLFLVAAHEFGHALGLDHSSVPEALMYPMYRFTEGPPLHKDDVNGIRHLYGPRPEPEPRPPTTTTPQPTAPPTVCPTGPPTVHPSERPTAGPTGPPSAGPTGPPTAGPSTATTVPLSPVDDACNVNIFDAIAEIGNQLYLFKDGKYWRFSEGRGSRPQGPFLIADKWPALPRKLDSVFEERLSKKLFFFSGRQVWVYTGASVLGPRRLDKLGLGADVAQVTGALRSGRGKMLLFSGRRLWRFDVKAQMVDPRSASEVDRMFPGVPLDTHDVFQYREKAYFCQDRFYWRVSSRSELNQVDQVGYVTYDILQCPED
In short: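 Recombinant MMP-9 was APMA-activated and used at e.g. 0.1 nM final in 50 mM Tris/HCl pH 7.5, 10 mM CaCl2, 150 mM NaCl, 0.05% Brij-35, with compound at e.g. 1 nM to 30 μM. Quenched Mca-Pro-Leu-Gly-Leu-Dpa(Dnp)-Ala-Arg-NH2 substrate (e.g. 10 μM) was followed by fluorescence (ex 320/em 410 nm), e.g. 120 min at 32 °C. IC50 corresponds to 50% signal.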

[3] = target: T3, MMP-10 (Homo sapiens, UniProt P09238); assay: In vitro MMP-10 inhibition test
T3 construct: purchased R&D Systems 910-MP
T3 sequence (P09238 99-476): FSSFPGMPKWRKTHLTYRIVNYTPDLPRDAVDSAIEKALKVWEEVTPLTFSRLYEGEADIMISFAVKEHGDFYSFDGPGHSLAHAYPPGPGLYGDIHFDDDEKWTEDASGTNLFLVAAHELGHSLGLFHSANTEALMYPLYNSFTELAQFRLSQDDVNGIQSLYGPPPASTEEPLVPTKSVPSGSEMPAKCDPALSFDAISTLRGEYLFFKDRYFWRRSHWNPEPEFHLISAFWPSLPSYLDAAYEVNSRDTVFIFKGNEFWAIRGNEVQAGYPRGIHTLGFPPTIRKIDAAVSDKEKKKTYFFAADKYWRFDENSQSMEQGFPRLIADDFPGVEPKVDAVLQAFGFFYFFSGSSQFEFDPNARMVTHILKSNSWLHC
In short: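 APMA-activated recombinant MMP-10 (final e.g. 2 nM) with quenched Mca-Arg-Pro-Lys-Pro-Val-Glu-Nval-Trp-Arg-Lys(Dnp)-NH2 substrate (final e.g. 10 μM) in 50 mM Tris/HCl pH 7.5, 10 mM CaCl2, 150 mM NaCl, 0.05% Brij-35. Fluorescence (ex 320/em 410 nm) followed e.g. 120 min at 32 °C. IC50 at 50% signal.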

[4] = target: T4, MMP-13 (Homo sapiens, UniProt P45452); assay: In vitro MMP-13 inhibition test
T4 construct: purchased R&D Systems 511-MP
In short: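 APMA-activated recombinant MMP-13 (e.g. 0.1 nM final) in 50 mM Tris/HCl pH 7.5, 10 mM CaCl2, 150 mM NaCl, 0.05% Brij-35 with Mca-PLGL-Dpa(Dnp)-AR-NH2 substrate (e.g. 10 μM final). Fluorescence (ex 320/em 410 nm) followed e.g. 120 min at 32 °C; IC50 at 50% signal.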

| IC50 [1] [nM] | IC50 [2] [nM] | IC50 [3] [nM] | IC50 [4] [nM] | SMILES |
| --- | --- | --- | --- | --- |
| 190 | 900 | 430 | 340 | O=C(O)[C@H]1[C@H](Cn2nnc3ccccc3c2=O)CC[C@@H]1C(=O)c1ccc(OCc2ccc(Cl)c(Cl)c2)cc1 (racemic) [Example 3, (+/−)-(1RS,2RS,5SR)-2-{4-[(3,4-Dichlorobenzyl)oxy]benzoyl}-5-[(4-oxo-1,2,3-benzotriazin-3(4H)-yl)methyl]cyclopentanecarboxylic acid] |
| 97 | 54 | 26 | 74 | Cc1ccc2nnn(C[C@H]3CC[C@@H](C(=O)c4ccc(OCC5CCCCC5)cc4)[C@@H]3C(=O)O)c(=O)c2c1 (single isomer, unassigned) [Example 117, (+)-(1RS,2RS,5SR)-2-[4-(Cyclohexylmethoxy)benzoyl]-5-[(6-methyl-4-oxo-1,2,3-benzotriazin-3(4H)-yl)methyl]cyclopentanecarboxylic acid] |
| 480 | 230 | 26 | 640 | Cc1cccc(COc2ccc(C(=O)[C@H]3CC[C@@H](Cn4nnc5ccc(C(F)(F)F)cc5c4=O)[C@@H]3C(=O)O)cc2)c1 (racemic) [Example 15, (+/−)-(1RS,2RS,5SR)-2-{4-[(3-Methylbenzyl)oxy]benzoyl}-5-{[4-oxo-6-(trifluoromethyl)-1,2,3-benzotriazin-3(4H)-yl]methyl}cyclopentanecarboxylic acid] |
| 1300 | 940 | 50 | 1700 | O=C(O)[C@@H]1[C@@H](Cn2nnc3ccc(C(F)(F)F)cc3c2=O)CC[C@H]1C(=O)c1ccc(OCCC2CCCC2)cc1 (single isomer, unassigned) [Example 55, (+)-(1RS,2RS,5SR)-2-[4-(2-Cyclopentylethoxy)benzoyl]-5-{[4-oxo-6-(trifluoromethyl)-1,2,3-benzotriazin-3(4H)-yl]methyl}cyclopentanecarboxylic acid] |
| 540 | 160 | 160 | 360 | Cc1ccc2nnn(C[C@@H]3CC[C@H](C(=O)c4ccc(OCc5cccc(C(F)(F)F)c5)cc4)[C@H]3C(=O)O)c(=O)c2c1 (racemic) [Example 100, (+/−)-(1RS,2SR,5RS)-2-[(6-Methyl-4-oxo-1,2,3-benzotriazin-3(4H)-yl)methyl]-5-(4-{[3-(trifluoromethyl)benzyl]oxy}benzoyl)cyclopentanecarboxylic acid] |
| 1600 | 270 | 87 | 1500 | O=C(O)[C@@H]1[C@@H](Cn2nnc3ccc(C(F)(F)F)cc3c2=O)CC[C@H]1C(=O)c1ccc(OCc2cccc(Cl)c2)cc1 (single isomer, unassigned) [Example 23, (+)-(1RS,2RS,5SR)-2-{4-[(3-Chlorobenzyl)oxy]benzoyl}-5-{[4-oxo-6-(trifluoromethyl)-1,2,3-benzotriazin-3(4H)-yl]methyl}cyclopentanecarboxylic acid] |
| 270 | 52 | 28 | 58 | O=C(O)[C@@H]1[C@@H](Cn2nnc3ccc(C(F)(F)F)cc3c2=O)CC[C@H]1C(=O)c1ccc(OCC2CCCC2)cc1 (single isomer, unassigned) [Example 44, (+)-(1RS,2RS,5SR)-2-[4-(Cyclopentylmethoxy)benzoyl]-5-{[4-oxo-6-(trifluoromethyl)-1,2,3-benzotriazin-3(4H)-yl]methyl}cyclopentanecarboxylic acid] |
| 290 | 480 | 310 | 400 | O=C(O)[C@H]1[C@H](Cn2nnc3ccccc3c2=O)CC[C@@H]1C(=O)c1ccc(OCc2cccc(Cl)c2)cc1 (racemic) [Example 2, (+/−)-(1RS,2RS,5SR)-2-{4-[(3-Chlorobenzyl)oxy]benzoyl}-5-[(4-oxo-1,2,3-benzotriazin-3(4H)-yl)methyl]cyclopentanecarboxylic acid] |
| 2800 | 4900 | 250 | 2400 | O=C(O)[C@H]1[C@H](Cn2nnc3ccc(C(F)(F)F)cc3c2=O)CC[C@@H]1C(=O)c1ccc(OCCCC2CCCCC2)cc1 (racemic) [Example 56, (+/−)-(1RS,2RS,5SR)-2-{4-(3-Cyclohexylpropoxy)benzoyl}-5-{[4-oxo-6-(trifluoromethyl)-1,2,3-benzotriazin-3(4H)-yl]methyl}cyclopentanecarboxylic acid] |
| 450 | 1400 | 53 | 53 | O=C(O)[C@@H]1[C@@H](Cn2nnc3ccc(C(F)(F)F)cc3c2=O)CC[C@H]1C(=O)c1ccc(OCc2cccc(N3CCOC3=O)c2)cc1 (single isomer, unassigned) [Example 35, (+)-(1RS,2RS,5SR)-2-(4-{[3-(2-Oxo-1,3-oxazolidin-3-yl)benzyl]oxy}benzoyl)-5-{[4-oxo-6-(trifluoromethyl)-1,2,3-benzotriazin-3(4H)-yl]methyl}cyclopentanecarboxylic acid] |
| 580 | 83 | 29 | 440 | CCCCCCOc1ccc(C(=O)[C@@H]2CC[C@H](Cn3nnc4ccc(C(F)(F)F)cc4c3=O)[C@H]2C(=O)O)cc1 (single isomer, unassigned) [Example 58, (+)-(1RS,2RS,5SR)-2-[4-(Hexyloxy)benzoyl]-5-{[4-oxo-6-(trifluoromethyl)-1,2,3-benzotriazin-3(4H)-yl]methyl}cyclopentanecarboxylic acid] |
| 1600 | 830 | 52 | 1600 | O=C(O)[C@@H]1[C@@H](Cn2nnc3ccc(C(F)(F)F)cc3c2=O)CC[C@H]1C(=O)c1ccc(OCCC2CCCCC2)cc1 (single isomer, unassigned) [Example 52, (+)-(1RS,2RS,5SR)-2-[4-(2-Cyclohexylethoxy)benzoyl]-5-{[4-oxo-6-(trifluoromethyl)-1,2,3-benzotriazin-3(4H)-yl]methyl}cyclopentanecarboxylic acid] |
